Assay results: US12558333B2, “Agent for ameliorating and/or preventing sickle cell disease” (The University of Tokyo, priority 2019, dated 2026)
Counter-ions that a name gives are not always drawn.

Legend:
SCD homo mice = conditions: normal oxygen concentration; 4 weeks; 5-ALA hydrochloride 50 mg/kg/day and/or SFC 3.9 mg/kg/day; vs physiological saline (FIG. 10); combination P<0.05
Description: All the prepared smear specimens were stained with May-Giemsa in the same manner as in Example 2, and the ratio of sickle cells to all red blood cells was measured. The rate of the sickle cells of the groups were compared with each other to examine the effect of the combination of 5-ALA hydrochloride and SFC on the rate of the in vivo sickle cells.

SCD homo mouse = experiment: Bleeding stress due to blood sampling in SCD model mice (blood LDH level); assay type: in vivo; conditions: 50/3.9 mg/kg single administration after first blood sampling, blood sampling 2 after 3 hours, vs physiological saline
Description: Using the LDH levels in blood in the SCD model mice as an index, the effect of 5-ALA hydrochloride on bleeding stress due to blood sampling in the SCD patients was examined.
The LDH levels in the blood collected before and after the administration were measured, and the effect of the combination of 5-ALA hydrochloride and SFC on bleeding stress due to blood sampling was evaluated.

[1] = system: red blood cells collected from SCD homo mice; experiment: Sickling by hypoxia exposure of cultured red blood cells collected from SCD homo mice; assay type: cell-based, mouse; conditions: then 4% O2 for 1.5 hours
Description: SCD model mice aged 8 to 20 weeks were used. In the mice, a human HBA gene and a human HBB gene are knocked in a mouse HBA gene locus and a mouse HBB gene locus, respectively, and a gene mutation (β^s mutation) causing amino acid substitution (Val6Glu) causing SCD is introduced into the human HBB gene. Furthermore, a human HBG gene is introduced, and expression switching from post-natal γ-globin to β-globin is designed to occur as in humans. […] The SCD homo mouse was anesthetized with isoflurane, and 100 μl of blood was then collected from the vein behind the jawbone into an EDTA-2Na-coated blood sampling tube using an animal lamp set. The coagulation of the blood was prevented by lightly tapping the tube. The collected blood was transferred to a 1.5 ml tube, and centrifuged for 10 minutes under conditions of 3000 rpm and 4° C. After removing the supernatant, 1 ml of PBS was added to the precipitated red blood cells, followed by mixing by inversion, to wash the cells. The red blood cells obtained by repeating this washing operation again were diluted 200 times with a cell culture solution (RPMI 1640, 10% FBS, 1% Penicillin-Streptomycin-Fungizone Cocktail), and cultured under the conditions of 37° C., 5% CO2, and 21% O2. This red blood cell culture solution was used in the experiment within 5 days from the start of culture. […]

For sodium ferrous citrate [SFC], the “rate of the in vivo sickle cells” value (SCD homo mice) was “little effect”.

In the case of `NCC(=O)CCC(=O)O` [5-ALA hydrochloride, 5-aminolevulinic acid], the “increase in the LDH level in blood after blood sampling” value (SCD homo mouse) is reported as “markedly suppressed”, the “red blood cells exhibiting a sickle form” value ([1]; 50 μM for 4 hours, SCD homo mouse No. 72, vs 0 μM (FIG. 1)) is reported as “remarkable decrease” and the sickling rate ([1]; 10, 25 and 50 μM for 4 hours, vs 0 μM (FIG. 2)) is reported as “concentration-dependent decrease”. The “rate of the in vivo sickle cells” value (SCD homo mice) was “slightly decreases”.
